28 compounds from US9675571B2, “Inhibitors of indoleamine 2,3-dioxygenase (IDO)” (BRISTOL-MYERS SQUIBB COMPANY, priority 2013, dated 2017) can be followed below.

Structures are written as SMILES.

Chain of Human IDO1 (P14902 whole entry): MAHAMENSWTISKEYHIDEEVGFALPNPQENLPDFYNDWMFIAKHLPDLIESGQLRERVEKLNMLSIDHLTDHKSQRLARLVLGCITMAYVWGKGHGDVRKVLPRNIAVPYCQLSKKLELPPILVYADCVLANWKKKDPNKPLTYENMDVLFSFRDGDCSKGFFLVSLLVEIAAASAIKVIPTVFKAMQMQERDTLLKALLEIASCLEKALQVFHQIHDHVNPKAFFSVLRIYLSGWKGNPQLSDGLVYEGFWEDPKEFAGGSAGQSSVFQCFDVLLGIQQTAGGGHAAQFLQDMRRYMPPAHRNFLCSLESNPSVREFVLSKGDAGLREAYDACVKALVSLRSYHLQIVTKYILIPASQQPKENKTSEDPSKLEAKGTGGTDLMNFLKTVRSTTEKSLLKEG

In the test the target is Human IDO1 (Homo sapiens (Human), UniProt P14902). Put plainly: IDO Kynurenine Assay with Human IDO1/HEK293 Cells. Type of test: cell-based. To be noted: 20 hours incubation, kynurenine detected with Ehrlich reagent, absorbance at 490 nm, read-out: HEK Human IDO-1 IC50. The procedure:
Human IDO1/HEK293 cells were seeded at 10,000 cells per 50 uL per well with RPMI/phenol red free media contains 10% FBS in a 384-well black wall clear bottom tissue culture plate (Matrix Technologies LLC) 125 nL of certain concentration of compound was then added to each well using ECHO liquid handling systems. The cells were incubated for 20 hours in 37° C. incubator with 5% CO2.
The compound treatments were stopped by adding Trichloroacetic Acid (Sigma-Aldrich) to a final concentration at 0.2%. The cell plate was further incubated at 50° C. for 30 minute. The equal volume supernatant (20 uL) and 0.2% (w/v) Ehrlich reagent (4-dimethylaminobenzaldehyde, Sigma-Aldrich) in glacial acetic acid were mixed in a new clear bottom 384-well plate. This plate was then incubated at room temperature for 30 minute. The absorbance at 490 nm was measured on Envision plate reader.
Compound IC50 values were calculated using the counts of 500 nM of a reference standard treatment as one hundred percent inhibition, and counts of no compound but DMSO treatment as zero percent inhibition.
As to `CC(C)CN(CC(C)C)c1ccc([C@@H]2C[C@@H]2C(=O)O)cc1NC(=O)Nc1ccc(C2CC2)cc1` [Example 20, (1S,2R)-2-(3-(3-(4-cyclopropylphenyl)ureido)-4-(diisobutylamino)phenyl) cyclopropanecarboxylic acid], the 50% inhibitory concentration (IC50) amounted to 61 nM. In the case of `CC(C)CN(CC(C)C)c1ccc([C@H]2C[C@H]2C(=O)O)cc1NC(=O)Nc1ccc(C(F)(F)F)cc1` [Example 5, (1R,2S)-2-(4-(diisobutylamino)-3-(3-(4-(trifluoromethyl)phenyl)ureido)phenyl)cyclopropanecarboxylic acid], the IC50 is 941 nM. The same measure for `CC(C)CN(CC(C)C)c1ccc([C@H]2C[C@H]2C(=O)O)cc1NC(=O)Nc1ccccc1Cl` [Example 9, (1R,2S)-2-(3-(3-(2-chlorophenyl)ureido)-4-(diisobutylamino)phenyl) cyclopropanecarboxylic acid]: 97 nM; for `Cc1cccc(NC(=O)Nc2cc([C@@H]3C[C@@H]3C(=O)O)ccc2N(CC(C)C)CC(C)C)c1` [Example 19, (1S,2R)-2-(4-(diisobutylamino)-3-(3-(m-tolyl)ureido)phenyl) cyclopropanecarboxylic acid]: 442 nM. The same measure for `Cc1ccc(CC(=O)Nc2cc([C@H]3C[C@H]3C(=O)O)ccc2N(CC(C)C)CC(C)C)cc1` [Example 60, (1R,2S)-2-(4-(diisobutylamino)-3-(2-(p-tolyl)acetamido)phenyl)cyclopropanecarboxylic acid]: 21 nM; for `CC(C)CN(CC(C)C)c1ccc([C@@H]2C[C@@H]2C(=O)O)cc1NC(=O)Nc1ccc(OCC(F)(F)F)cc1` [Example 72, (1S,2R)-2-(4-(diisobutylamino)-3-(3-(4-(2,2,2-trifluoroethoxy)phenyl)ureido)phenyl)cyclopropanecarboxylic acid]: 200 nM. The value for `CC(C)CN(CC(C)C)c1ccc([C@H]2C[C@H]2C(=O)O)cc1NC(=O)Nc1ccc(CC#N)cc1` [Example 15, (1R,2S)-2-(3-(3-(4-(cyanomethyl)phenyl)ureido)-4-(diisobutylamino)phenyl) cyclopropanecarboxylic acid] was 541 nM; that for `Cc1ccc(NC(=O)Nc2cc([C@@H]3C[C@@H]3C(=O)O)ccc2N(CCCC(F)(F)F)C2CCCCC2)cc1` [Example 76, (1S,2R)-2-(4-(cyclohexyl(4,4,4-trifluorobutyl)amino)-3-(3-(p-tolyl)ureido)phenyl)cyclopropanecarboxylic acid] was 338 nM; that for `Cc1ccc(NC(=O)Nc2cc([C@H]3C[C@H]3C(=O)O)ccc2N(CC(C)C)CC(C)C)c(Cl)c1` [Example 14, (1R,2S)-2-(3-(3-(2-chloro-4-methylphenyl)ureido)-4-(diisobutylamino)phenyl) cyclopropanecarboxylic acid] was 86 nM. Take `CC(C)CN(CC(C)C)c1ccc([C@H]2C[C@H]2C(=O)O)cc1NC(=O)Nc1cc(C(F)(F)F)no1` [Example 36, (1R,2S)-2-(4-(diisobutylamino)-3-(3-(3-(trifluoromethyl)isoxazol-5-yl)ureido)phenyl)cyclopropanecarboxylic acid]: the IC50 was 7 nM.

For the compound `COC(=O)[C@@H]1C[C@@H]1c1ccc(N(CC(C)C)CC(C)C)c([N+](=O)[O-])c1` [Example 1J, (1R,2S)-methyl 2-(4-(diisobutylamino)-3-nitrophenyl) cyclopropanecarboxylate], the IC50 is 8 nM. The value for `Cc1ccc(NC(=O)Nc2cc([C@H]3C[C@H]3C(=O)O)ccc2N(CCCC(F)(F)F)C2CCCCC2)cc1` [Example 73, (1R,2S)-2-(4-(cyclohexyl(4,4,4-trifluorobutyl)amino)-3-(3-(p-tolyl)ureido)phenyl)cyclopropanecarboxylic acid] was 527 nM. The same measure for `Cc1cc(NC(=O)Nc2cc([C@@H]3C[C@@H]3C(=O)O)ccc2N(CC(C)C)CC(C)C)on1` [Example 31, (1S,2R)-2-(4-(diisobutylamino)-3-(3-(3-methylisoxazol-5-yl)ureido)phenyl)cyclopropanecarboxylic acid]: 4 nM; for `COCCN(Cc1ccc(Cl)cc1)c1ccc([C@H]2C[C@H]2C(=O)O)cc1NC(=O)Nc1ccc(C)cc1` (single isomer, unassigned) [Example 43]: 88 nM. Turning to `CC(C)CN(CC(C)C)c1ccc([C@@H]2C[C@@H]2C(=O)O)cc1NC(=O)Nc1cc(C(F)(F)F)no1` [Example 37, (1S,2R)-2-(4-(diisobutylamino)-3-(3-(3-(trifluoromethyl)isoxazol-5-yl)ureido)phenyl)cyclopropanecarboxylic acid], the IC50 came out at 7 nM. The same measure for `O=C(Nc1cncnc1)Nc1cc([C@H]2C[C@H]2C(=O)O)ccc1N(CCCC(F)(F)F)C1CCCCC1` [Example 75]: 787 nM; for `Cc1cc(CC(=O)Nc2cc([C@@H]3C[C@@H]3C(=O)O)ccc2N(CC(C)C)CC(C)C)on1` [Example 63, (1S,2R)-2-(4-(diisobutylamino)-3-(2-(3-methylisoxazol-5-yl)acetamido)phenyl) cyclopropanecarboxylic acid]: 262 nM. In the case of `CCOC(=O)Nc1ccc(NC(=O)Nc2cc([C@@H]3C[C@@H]3C(=O)O)ccc2N(CC(C)C)CC(C)C)cc1` [Example 71, (1S,2R)-2-(4-(diisobutylamino)-3-(3-(4-((ethoxycarbonyl)amino)phenyl)ureido)phenyl)cyclopropanecarboxylic acid], the concentration for half-maximal inhibition (IC50) came to 519 nM. As to `Cc1cc(NC(=O)Nc2cc([C@H]3C[C@H]3C(=O)O)ccc2N(CC(C)C)C2CCCCC2)on1` [Example 129, (1R,2S)-2-(4-(cyclohexyl(isobutyl)amino)-3-(3-(3-methylisoxazol-5-yl)ureido)phenyl)cyclopropanecarboxylic acid], the IC50 came to 0.5 nM. The value for `Cc1cc(NC(=O)Nc2cc([C@@H]3C[C@@H]3C(=O)O)ccc2N(CC(C)C)CC(C)C)no1` [Example 67, (1S,2R)-2-(4-(diisobutylamino)-3-(3-(5-methylisoxazol-3-yl)ureido)phenyl)cyclopropanecarboxylic acid] was 23 nM; that for `Cc1cc(NC(=O)Nc2cc([C@H]3C[C@H]3C(=O)O)ccc2N(CC(C)C)CC(C)C)on1` [Example 30, (1R,2S)-2-(4-(diisobutylamino)-3-(3-(3-methylisoxazol-5-yl)ureido)phenyl)cyclopropanecarboxylic acid] was 6 nM. The same measure for `Cc1ncc(NC(=O)Nc2cc([C@@H]3C[C@@H]3C(=O)O)ccc2N(CC(C)C)CC(C)C)cn1` [Example 77, (1S,2R)-2-(4-(diisobutylamino)-3-(3-(2-methylpyrimidin-5-yl)ureido)phenyl)cyclopropanecarboxylic acid]: 64 nM; for `CC(C)CN(CC(C)C)c1ccc([C@H]2C[C@H]2C(=O)O)cc1NC(=O)Nc1ccc(Cl)c(Cl)c1` [Example 6, (1R,2S)-2-(3-(3-(3,4-dichlorophenyl)ureido)-4-(diisobutylamino)phenyl) cyclopropanecarboxylic acid]: 148 nM. The same measure for `CC(C)CN(CC(C)C)c1ccc([C@H]2C[C@H]2C(=O)O)cc1NC(=O)Cc1ccc(F)cc1` [Example 117, (1R,2S)-2-(4-(diisobutylamino)-3-(2-(4-fluorophenyl)acetamido)phenyl)cyclopropanecarboxylic acid]: 97 nM; for `Cc1ccc(CC(=O)Nc2cc([C@H]3C[C@H]3C(=O)O)ccc2N(CC(C)C)CC(C)C)cn1` [Example 118, (1R,2S)-2-(4-(diisobutylamino)-3-(2-(6-methylpyridin-3-yl)acetamido)phenyl)cyclopropanecarboxylic acid]: 126 nM; for `O=C(Nc1cncnc1)Nc1cc([C@H]2C[C@H]2C(=O)O)ccc1N(CCC(F)(F)F)C1CCCCC1` [Example 87, (1R,2S)-2-(4-(cyclohexyl(3,3,3-trifluoropropyl)amino)-3-(3-(pyrimidin-5-yl)ureido)phenyl)cyclopropanecarboxylic acid]: 994 nM. Regarding `COC(=O)C1CC1c1ccc(N(CC(C)C)CC(C)C)c([N+](=O)[O-])c1` (stereo not drawn) [ent-1J], the 50% inhibitory concentration (IC50) was determined as 2 nM. The same measure for `CC(C)CN(CC(C)C)c1ccc([C@H]2C[C@H]2C(=O)O)cc1NC(=O)Nc1cc(C2CC2)no1` [Example 34, (1R,2S)-2-(3-(3-(3-cyclopropylisoxazol-5-yl)ureido)-4-(diisobutylamino)phenyl)cyclopropanecarboxylic acid]: 2 nM.
